Patent publication US20050203011A1, “Mitigating symptoms and behaviors of substance abuse by modulating GDNF or BDNF pathway activity” (The Regents of the University of California, priority 2003, published 2005)

Legend:
[1] = test system: C57B1/6 mice or BDNF+/+ and BDNF± mice; test: Ethanol self-administration in mice (two-bottle choice); type: in vivo, mouse; conditions: for ethanol consumption: wildtype mice
Method: Voluntary ethanol intake in singly-housed adult male C57B1/6 mice or BDNF+/+ and BDNF±mice was established by placing a bottle containing 10% ethanol in tap water (v/v) on the home cage next to an identical bottle filled with tap water for at least 1 month. Only subjects that consumed at least 40% of their total fluid volume as ethanol were included in these studies. All injections (PBS/10% glycerol vehicle, Tat-KEP27, K252a and/or Tat-RACK1) were conducted at 15:00 hours; ethanol and water intake were measured 18 hours later at 09:00 hours. Treatments were tested using a within-subjects design; subjects received one or two injections per week. Chemicals were administered in injection volumes of 1-3 ml per 100 g body weight. The effect of a deprivation period on consumption was tested by allowing mice continuous access to a bottle of 20% ethanol in tap water and a bottle of tap water on the home cage for 2 weeks. The ethanol bottle was removed for 2 weeks. Intake of 20% ethanol and of water was measured for 4 days after the ethanol was reintroduced.

Trk receptor = molecular target: T1, Trk receptor (Rattus norvegicus, UniProt Q63604); test: Trk phosphorylation in striatal slices (Western blot); type: cell-based; conditions: 1 μM Tat-RACK1 together with 200 nM K252a, 4 hours
T1 construct: from tissue; host or cells: striatal slices (dorsal striatum and NAc) of Sprague-Dawley rats
Method: Coronal striatal slices ([…]) were prepared from 3-4 week old male Sprague-Dawley rats. Slices were maintained for at least 1 hour in artificial cerebrospinal fluid (αCSF) containing (in mM): 126 NaCl, 1.2 KCl, 1.2 NaH2PO4, 0.01 MgCl2, 2.4 CaCl2, 18 NaHCO3 and 11 glucose saturated with 95% O2/5% CO2 at […]. […] Brain homogenates were prepared after in vivo protein transduction. Adult C57B1/6 mice were injected i.p. with vehicle or 4 mg/kg of Tat-RACK1. Four hours later, brains were immediately removed and homogenized and protein extracts were prepared as described above.
Samples ([…]) were resolved on a 10% SDS-PAGE and transferred to a nitrocellulose membrane. Membranes were probed with the appropriate antibodies and immunoreactivity was detected with enhanced chemilluminescence (Amersham Bioscience) and processed using the STORM system (Molecular Dynamic).

[2] = in vivo; cited from earlier work
ERK1/2 = ERK1/2 phosphorylation in SHSY5Y cells; type: cell-based, human; conditions: 10 μM ibogaine 3 hours, U0126 20 μM, PD98059 40 μM 30 minutes or PI-PLC 0.3 unit/ml 1 h pre-incubation
Method: ERK2 and pERK1/2 were detected by Western blot analysis with anti-ERK2 and pERK1/2 antibodies respectively. Line-graph depicts the mean ratio (pERK2/ERK2)±SD of 3 experiments. […] Panel C: Cells were pre-incubated with 0.3 unit/ml PI-PLC for 1 h (lane 3).

NGF = conditions: C57 mice, voluntary ethanol consumption, striatum and PFC
Method: Adult male C57B1/6 mice were decapitated 3 hours after the start of the dark cycle, for mice with access to ethanol, or 6 hours following i.p. injection of vehicle or Tat-RACK1 (4 mg/kg), for naïve animals. Brains were rapidly removed and bilateral tissue punches of the striatum and PFC were frozen in liquid nitrogen. BDNF, NGF and GPDH expression were analyzed by RT-PCR as described above for hippocampal cultures. The primers for NGF were designed as follows: […]

[3] = test system: primary hippocampal neurons; test: RACK1 / Tat-RACK1 nuclear localization in primary hippocampal neurons (confocal microscopy); type: cell-based, rat; conditions: 100 mM ethanol 30 minutes
Method: Primary hippocampal neurons were washed in cold PBS containing 0.1% Triton X-100, fixed in cold methanol and blocked in PBS containing 0.1% Triton X-100 and 3% Normal Goat Serum. lrmunostaining was performed with monoclonal monoclonal IgG HA antibodies (1:150). Staining was detected with anti FITC antibodies (1:500). Nuclei were detected with the nuclear marker TOTO-3 (1: 10000). Slides were viewed with a laser scanning confocal microscope (Zeiss LSM 510 Meta). Z-field images were processed by obtaining the middle Z field sections using LSM 5 Image Browse (Scion Corporation) and Adobe Photoshop (Adobe Systems Inc.). For immunocytochemistry used to detect the presence of Tat-RACK1 in the brain, C57 mice were injected i.p. with vehicle or 4 mg/kg Tat-RACK1. Animals were decapitated 4 hours post injection and brains were quickly removed and frozen at −50° C. in isopentane. Slide-mounted saggital striatal sections ([…]) were immersed for 10 minutes in cold (−20° C.) mixture of 75% methanol and 25% acetone, re-hydrated, rinsed in PBS and incubated in 10% normal donkey serum. Rat monoclonal anti-HA antibody (1:2,000 in PBS) was applied overnight in a humid chamber. […]

BDNF [4] = test: BDNF expression in vivo (RT-PCR of tissue punches); parameters: species or system mouse; conditions: C57 mice, voluntary consumption of 10% ethanol for 2 weeks
Text: The primers for NGF were designed as follows: […]

BDNF [5] = test: BDNF expression in primary hippocampal cultures (RT-PCR); type: cell-based, rat; conditions: primary hippocampal neurons
Method: Sprague-Dawley rats (P0) were decapitated and hippocampi were dissected bilaterally. Cells were dissociated by enzyme digestion with papain followed by brief mechanical trituration and plated on poly-D-lysine treated flasks. Cells were plated (1×10^6 cells/chamber) and maintained in Neurobasal media supplemented with B27, penicillin, streptomycin and Glutamax-1 and maintained in culture for 3 weeks. Following treatment, total RNAs were isolated using Trizol reagent and reverse transcribed (RT) using the Reverse Transcription System kit. The RT products were used for analysis of the expression of BDNF and the control gene […] (GPDH) by polymerase chain reaction (PCR) described in (Yaka et al. (2003) J. Biol. Chem. 278: 9630-9638). The PCR products were photographed by Eagle Eye II (Stratagene), and quantified by using NIH Image 1.61.

[6] = test system: tyrosine hydroxylase (TH); test: Tyrosine hydroxylase (TH) protein levels in SHSY5Y cells; type: cell-based, human
Method: Panel A: SHSY5Y cells were treated with different concentrations (0, 10, 25, and 100 mM) of ethanol for 24 hours. TH protein levels and control Actin levels were determined by Western blot analysis. Histogram depicts the mean ratio (TI/actin)±SD of 3 experiments. Panel B: Cells were treated with media (control), 100 ng/ml of GDNF for 12 h (lane 1), 100 mM ethanol for 24 hours (lane 2), or 100 mM ethanol for 24 hours to which 100 ng/ml GDNF was added for the last 12 hours (lane 3). The cells were lysed for Western blot analysis. Histogram depicts the mean ratio (TH/actin)±SD of 3 experiments. […] Histogram depicts the mean ratio (TH/actin)±SD of 3 experiments.

Long Evans rats = test: Ethanol self-administration in rats after intracerebroventricular (i.c.v.) microinjections; type: in vivo, rat; conditions: i.c.v. microinjection, intake 24 hours after treatment
Method: Adult male Long Evans rats were trained in the two-bottle choice ethanol self-administration procedure as described above for mice. Three weeks after ethanol exposure commenced, a 26 gauge cannula was placed into the right lateral ventricle (stereotaxic coordinates AP: −0.8, ML: −1.4, DV: −3.6, relative to bregma) of anesthetized subjects. Three weeks later, subjects received weekly i.c.v. microinjections of vehicle, Tat-RACK1, or the Tat-peptide (injection volume […]) at approximately 15:30, or 3.5 hours before lights out. Intake was measured 24 hours after treatment. All subjects received vehicle and Tat-RACK1 injections; a subset of subjects was also injected with the Tat-peptide. Cannula locations were verified histologically at the conclusion of the experiment.

BDNF [7] = test: BDNF secretion from dissociated hippocampal neurons (ELISA); type: cell-based, rat; conditions: 1 μM, 6 hours
Method: BDNF or NGF secretion was measured in media from dissociated hippocampal neurons or from striatal slices using Emax ImmunoAssay according to (Balkowiec and Katz (2000) J. Neurosci., 20: 7417-7423)) and (Heaton et al. (2003) Brain Res. Dev. Brain Res. 140: 237-252), respectively. BDNF or NGF concentrations were interpolated from the standard curves (linear range of 7.8-500 pg/ml).

T1 sequence (Q63604 32-821): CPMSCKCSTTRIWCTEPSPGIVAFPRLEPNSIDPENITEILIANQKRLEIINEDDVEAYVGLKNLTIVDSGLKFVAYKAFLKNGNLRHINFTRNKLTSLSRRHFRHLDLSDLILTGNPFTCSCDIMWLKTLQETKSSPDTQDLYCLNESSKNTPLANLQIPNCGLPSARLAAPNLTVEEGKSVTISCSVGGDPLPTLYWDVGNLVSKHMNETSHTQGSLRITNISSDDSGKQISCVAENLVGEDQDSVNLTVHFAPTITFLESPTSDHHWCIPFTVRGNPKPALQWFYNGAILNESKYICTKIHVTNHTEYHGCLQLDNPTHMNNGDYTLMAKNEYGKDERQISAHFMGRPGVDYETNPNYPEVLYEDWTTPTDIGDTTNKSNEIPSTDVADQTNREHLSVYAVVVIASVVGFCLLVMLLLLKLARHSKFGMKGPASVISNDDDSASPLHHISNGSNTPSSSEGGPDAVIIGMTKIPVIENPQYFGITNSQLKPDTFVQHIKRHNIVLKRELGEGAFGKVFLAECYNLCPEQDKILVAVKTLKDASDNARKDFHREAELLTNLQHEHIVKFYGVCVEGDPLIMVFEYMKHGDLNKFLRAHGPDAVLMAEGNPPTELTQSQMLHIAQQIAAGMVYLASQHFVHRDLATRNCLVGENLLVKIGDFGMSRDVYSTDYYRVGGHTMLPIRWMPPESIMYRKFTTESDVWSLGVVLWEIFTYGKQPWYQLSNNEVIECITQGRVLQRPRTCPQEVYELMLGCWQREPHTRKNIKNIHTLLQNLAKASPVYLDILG

Q: Which results are given for COC(=O)[C@@]1(O)C[C@H]2O[C@]1(C)n1c3ccccc3c3c4c(c5c6ccccc6n2c5c31)C(=O)NC4 [K252a]?
A: reduction in ethanol intake by Tat-RACK1, co-injection with K252a ([1]; mice, Tat-RACK1 4 mg/kg + K252a): prevented the reduction in ethanol intake; ethanol consumption ([1]; K252a 5 mg/kg i.p.): increased; ethanol consumption ([1]; K252a 25 mg/kg i.p.): increased; Tat-RACK1-induced Trk phosphorylation (Trk receptor): reduced

Q: With CC[C@H]1C[C@H]2C[C@H]3c4[nH]c5ccc(O)cc5c4CCN(C2)[C@@H]13 [Noribogaine] as the molecule, how does the “metabolite detection after ibogaine administration” value [2] read?
A: detected at high concentrations within 24 hours after administration

Q: For COc1cccc(-c2cc(=O)c3ccccc3o2)c1N [PD98059], which “ERK1/2 phosphorylation induced by ibogaine” value (ERK1/2) is on record?
A: blocked

Q: Which “ERK1/2 phosphorylation induced by ibogaine” value (ERK1/2) does the source give for N#CC(=C(/N)Sc1ccccc1N)/C(C#N)=C(\N)Sc1ccccc1N [U0126] here?
A: blocked

Q: Which results are given for CCO [ethanol]?
A: expression of NGF (NGF): no change; RACK1 nuclear translocation [3]: translocation of RACK1 into the nucleus; expression levels of BDNF in the prefrontal cortex (PFC) (BDNF [4]): but not the prefrontal cortex; expression levels of BDNF in the striatum (BDNF [4]): significantly increased; ethanol concentrations (as low as) that increased BDNF expression (BDNF [5]; 0.5 hours): 10 to 25 mM; expression levels of BDNF (BDNF [5]; acute ethanol, dose- and time-dependent): increased; BDNF expression (BDNF [5]; continuous ethanol 24 or 48 hours): reduced BDNF expression to below basal levels; ethanol concentration resulting in an increase in TH immunoreactivity (as low as) [6]: 10 mM; protein level of TH ([6]; ethanol 24 hours, dose-dependent): significant increase

Q: With YGRKKRRQRRR [Tat-peptide] as the molecule, how does the ethanol intake (Long Evans rats) read?
A: no effect

Q: And the “secretion of BDNF” value (BDNF [7])?
A: no change

B1: GDNF: Human glial-cell line derived neurotrophic factor (protein)
chain: SPDKQMAVLPRRERNRQAAAANPENSRGKGRRGQRGKNRGCVLTAIHLNVTDLGLGYETKEELIFRYCSGSCDAAETTYDKILKNLSRNRRLVSDKVGQACCRPIAFDDDLSFLDDNLVYHILRKHSAKRCGCI
Q: Which “ethanol-induced increase in TH immunoreactivity” value ([6]; 100 mM ethanol 24 hours, GDNF 100 ng/ml or ibogaine 10 μM added for last 12 hours) does the source give for B1 here?
A: inhibited
